Counter-ions that a name gives are not always drawn.
Columns and labels:
[1] = Stability of Compound 2-A in stability chambers; format: physicochemical
Experimental: The stability of Compound 2-A was measured under three different conditions: 1) open container; 2) PE/ALU bag where the PE bag is closed with clips and the ALU bag is sealed by thermos-sealing; and 3) PE/ALU bag with desiccant where the PE bag is closed with plastic clip, the ALU bag is sealed by the thermos-sealing, and 10 g of silica gel is placed between the bags. The open container conditions were conducted with two different batches of Compound 2-A. The results of the stability studies are shown in Table 5A, Table 5B, Table 6, and Table 7.

[2] = Hygroscopicity in climatic cabinet; format: physicochemical
Experimental: Compound 2-A was characterized by ^1HNMR, ^13CNMR, FI-IR, and mass spectrum in addition to XRPD (FIG. 1A) and differential scanning calorimetry (DSC) (FIG. 1B). The hygroscopicity was measured by placing a sample in a climatic cabinet set at 25±1° C./80±2% RH for 24 hours. The water content was increased from 3.3% to 9.4%.

[3] = system: GT1b_3a-NS5B chimeric HCV replicon; assay: microbe, parasite or virus in culture; format: cell-based; details: Hepatitis C virus, Huh-7, 72 h, read-out: Individual EC50
Experimental: (§1) Huh7 cells were maintained in DMEM supplemented with 10% FBS, 1% NEAA, 1% L-Glutamine and 1% Penicillin-Streptomycin. The stable HCV GT1a and 1b replicon cells were generated by transfection of Huh7 cells with in vitro transcribed HCV replicon RNA transcripts from replicon DNA constructs and were selected with 250 μg/ml of G418. The GT1b/3a NS5B chimeric replicons were constructed with the GT1b replicon as a backbone. GT1b/3a NS5B replicon RNAs were in vitro transcribed using the replicon plasmid DNAs and used to transiently transfect Huh7 cells by electroporation.
(§2) The final concentration of DMSO in the cell culture medium was 0.5%. Compounds were individually tested for their inhibitory activity in stably-transfected GT1a and GT1b replicons and in transiently-transfected GT1b/3a NS5B chimeric replicons in duplicate at 9 concentrations with a series of 4-fold dilutions starting at 10,000 nM. Replicon cells were seeded (8,000 cells/well for GT1a and 1b; 10,000 cells/well for GT1b/3a NS5B) in 96-well plates containing serially diluted compounds and cultured at 37° C. and 5% CO2 for 3 days. CellTiter-Fluor was used to detect the fluorescence signal and the raw data (RFU) was used for calculating cell viability using the equation below: […]
(§3) where CPD is a signal from a well containing a test compound, ZPE is the average of signals from DMSO control wells and HPE is the average of signals from medium control wells.
(§4) The data were analyzed using CompuSyn software (ComboSyn, Inc., Paramus, N.J.) to obtain the concentrations of the individual compounds required to achieve 50% cytotoxicity (CC50) and 50% (EC50) and 90% (EC90) antiviral efficacy. […]
(§5) In Example 6, Huh7 cells were transiently transfected with replicon RNA by electroporation and seeded at a density of 10,000 cells/well in 96-well plates. HCV GT1a and GT1b replicons stable cells were seeded at a density of 8,000 cells/well in 96-well plates. […]

[4] = system: HCV GT1a replicon; assay: microbe, parasite or virus in culture; format: cell-based; details: Hepatitis C virus, Huh-7, 72 h, stable replicon in Huh7 cells, 3 days, read-out: Individual EC50
Experimental: as §1, §2, §3, §4, §5

[5] = system: HCV GT1b replicon; assay: microbe, parasite or virus in culture; format: cell-based; details: Hepatitis C virus, Huh-7, 72 h, stable replicon in Huh7 cells, 3 days, read-out: Individual EC50
Experimental: as §1, §2, §3, §4, §5

[6] = system: HCV GT1; details: non-cirrhotic patients, 600 mg QD, seven days; cited from earlier work
[7] = system: HCV GT3; details: non-cirrhotic patients, 600 mg QD, seven days; cited from earlier work
[8] = system: HCV GT1 or HCV GT3; details: CPA cirrhosis, QD for seven days; cited from earlier work
[9] = 25° C./60% RH and 40° C./75% RH
[10] = Batch No. 1, open container, 25° C./60% RH, 7 days
[11] = Batch No. 1, open container, 25° C./60% RH, 14 days
[12] = Batch No. 1, open container, 25° C./60% RH, 28 days
[13] = Batch No. 1, open container, 30° C./65% RH, 7 days
[14] = Batch No. 1, open container, 30° C./65% RH, 14 days
[15] = Batch No. 1, open container, 30° C./65% RH, 28 days
[16] = Batch No. 1, open container, 40° C./75% RH, 7 days
[17] = Batch No. 1, open container, 40° C./75% RH, 14 days
[18] = Batch No. 1, open container, 40° C./75% RH, 28 days
[19] = Batch No. 1, open container, Initial
[20] = Batch No. 2, PE/ALU bag, 25° C./60% RH, 7 days
[21] = Batch No. 2, PE/ALU bag, 25° C./60% RH, 16 days
[22] = Batch No. 2, PE/ALU bag, 40° C./75% RH, 7 days
[23] = Batch No. 2, PE/ALU bag, 40° C./75% RH, 16 days
[24] = Batch No. 2, PE/ALU bag, Initial
[25] = Batch No. 2, PE/ALU with desiccant, 25° C./60% RH, 7 days
[26] = Batch No. 2, PE/ALU with desiccant, 25° C./60% RH, 16 days
[27] = Batch No. 2, PE/ALU with desiccant, 40° C./75% RH, 7 days
[28] = Batch No. 2, PE/ALU with desiccant, 40° C./75% RH, 16 days
[29] = Batch No. 2, PE/ALU with desiccant, Initial
[30] = Batch No. 2, open container, 25° C./60% RH, 7 days
[31] = Batch No. 2, open container, 25° C./60% RH, 16 days
[32] = Batch No. 2, open container, 30° C./65% RH, 7 days
[33] = Batch No. 2, open container, 30° C./65% RH, 16 days
[34] = Batch No. 2, open container, 40° C./75% RH, 7 days
[35] = Batch No. 2, open container, 40° C./75% RH, 16 days
[36] = Batch No. 2, open container, Initial

COC(=O)N[C@H](C(=O)N1CCC[C@H]1c1nc(-c2ccc(-c3ccc(-c4c[nH]c([C@@H]5CCCN5C(=O)[C@@H](NC(=O)OC)C(C)C)n4)c4c3OCO4)cc2)c[nH]1)C(C)C [Compound 2-A]
purity change [1, 9]: not changed
water content change [1, 9]: slowly increased
Appearance [1, 10]: Pale-yellow solid
Purity (HPLC) [1, 10]: 98.45%
Water (KF) [1, 10]: 6.14%
XRPD [1, 10]: Consistent
Appearance [1, 11]: Pale-yellow solid
Purity (HPLC) [1, 11]: 98.61%
Water (KF) [1, 11]: 6.28%
Appearance [1, 12]: Pale-yellow solid
Purity (HPLC) [1, 12]: 98.58%
Water (KF) [1, 12]: 5.95%
Appearance [1, 13]: Pale-yellow solid
Purity (HPLC) [1, 13]: 98.40%
Water (KF) [1, 13]: 6.73%
XRPD [1, 13]: Consistent
Appearance [1, 14]: Pale-yellow solid
Purity (HPLC) [1, 14]: 98.47%
Water (KF) [1, 14]: 6.80%
Appearance [1, 15]: Pale-yellow solid
Purity (HPLC) [1, 15]: 98.59%
Water (KF) [1, 15]: 6.49%
Appearance [1, 16]: Pale-yellow solid
Purity (HPLC) [1, 16]: 98.45%
Water (KF) [1, 16]: 7.13%
XRPD [1, 16]: Consistent
Appearance [1, 17]: Pale-yellow solid
Purity (HPLC) [1, 17]: 98.51%
Water (KF) [1, 17]: 7.67%
Appearance [1, 18]: Pale-yellow solid
Purity (HPLC) [1, 18]: 98.53%
Water (KF) [1, 18]: 6.96%
Appearance [1, 19]: Pale-yellow solid
Purity (HPLC) [1, 19]: 98.39%
Water (KF) [1, 19]: 3.11%
XRPD [1, 19]: Crystalline
Appearance [1, 20]: White powder
Purity (HPLC) [1, 20]: 99.36%
Water (KF) [1, 20]: 5.18%
Appearance [1, 21]: White powder
Purity (HPLC) [1, 21]: 99.41%
Water (KF) [1, 21]: 5.56%
Appearance [1, 22]: White powder
Purity (HPLC) [1, 22]: 99.37%
Water (KF) [1, 22]: 5.42%
Appearance [1, 23]: White powder
Purity (HPLC) [1, 23]: 99.42%
Water (KF) [1, 23]: 5.91%
Appearance [1, 24]: White powder
Purity (HPLC) [1, 24]: 99.39%
Water (KF) [1, 24]: 4.48%
Appearance [1, 25]: White powder
Purity (HPLC) [1, 25]: 99.38%
Water (KF) [1, 25]: 5.46%
Appearance [1, 26]: White powder
Purity (HPLC) [1, 26]: 99.41%
Water (KF) [1, 26]: 5.83%
Appearance [1, 27]: White powder
Purity (HPLC) [1, 27]: 99.37%
Water (KF) [1, 27]: 5.51%
Appearance [1, 28]: White powder
Purity (HPLC) [1, 28]: 99.42%
Water (KF) [1, 28]: 6.90%
Appearance [1, 29]: White powder
Purity (HPLC) [1, 29]: 99.39%
Water (KF) [1, 29]: 4.48%
Appearance [1, 30]: White powder
Purity (HPLC) [1, 30]: 99.37%
Water (KF) [1, 30]: 6.01%
Appearance [1, 31]: White powder
Purity (HPLC) [1, 31]: 99.41%
Water (KF) [1, 31]: 7.69%
Appearance [1, 32]: White powder
Purity (HPLC) [1, 32]: 99.38%
Water (KF) [1, 32]: 7.50%
Appearance [1, 33]: White powder
Purity (HPLC) [1, 33]: 99.41%
Water (KF) [1, 33]: 6.98%
Appearance [1, 34]: White powder
Purity (HPLC) [1, 34]: 99.38%
Water (KF) [1, 34]: 7.96%
Appearance [1, 35]: White powder
Purity (HPLC) [1, 35]: 99.42%
Water (KF) [1, 35]: 7.03%
Appearance [1, 36]: White powder
Purity (HPLC) [1, 36]: 99.39%
Water (KF) [1, 36]: 4.48%
water content ([2]; after 24 hours at 25±1° C./80±2% RH): 9.4%
water content ([2]; before storage): 3.3%

CNc1nc(N)nc2c1ncn2[C@@H]1O[C@H](CO[P@@](=O)(N[C@@H](C)C(=O)OC(C)C)Oc2ccccc2)[C@@H](O)[C@@]1(C)F [Compound 1-A, hemi-sulfate salt of isopropyl((S)-(((2R,3R,4R,5R)-5-(2-amino-6-(methylamino)-9H-purin-9-yl)-4-fluoro-3-hydroxy-4-methyltetrahydrofuran-2-yl)methoxy)(phenoxy)phosphoryl)-L-alaninate]
EC50 [3]: 1.68 nM
EC50 [4]: 2.83 nM
EC50 [5]: 2.69 nM
mean maximum HCV RNA reduction [6]: 4.4 log10 IU/mL
mean maximum HCV RNA reduction [7]: 4.6 log10 IU/mL
mean maximum HCV RNA reduction [8]: 4.4 log10 IU/mL

COC(=O)N[C@H](C(=O)N1CCC[C@H]1c1nc(-c2ccc(-c3ccc(-c4c[nH]c([C@@H]5CCCN5C(=O)[C@@H](NC(=O)OC)C(C)C)n4)c4c3OCO4)cc2)c[nH]1)C(C)C [Compound 2, methyl N-[(2S)-1-[(2S)-2-[5-[4-[7-[2-[(2S)-1-[(2 S)-2-(methoxycarbonylamino)-3-methylbutanoyl]pyrrolidin-2-yl]-1H-imidazol-5-yl]-1,3-benzodioxol-4-yl]phenyl]-1H-imidazol-2-yl]pyrrolidin-1-yl]-3-methyl-1-oxobutan-2-yl]carbamate]
EC50 [3]: 0.0029 nM
EC50 [4]: 0.03 nM
EC50 [5]: 0.014 nM

— US20200179415A1, “HIGHLY ACTIVE DRUG COMBINATION FOR TREATMENT OF HEPATITIS C VIRUS” (Atea Pharmaceuticals, Inc., priority 2018, published 2020)
